# Patent US20160002204A1 (Board of Regents, The University of Texas System, priority 2014, published 2016)
# Tests used:
# A549 cells = assay: A549 proliferation (viability) assay, Cell Titer Fluor, 72 hours; assay type: cell-based; details: Homo sapiens
# Summary of the method: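 Fluorescence read-out (Cell Titer Fluor, 30 min at 37 °C after reagent) after 72 h compound exposure of A549 cells; EC50 by four-parameter logistic curve fit. Cells: 1000/well, RPMI 1640 + 10% dialyzed FBS, 0.5% DMSO final.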
# [1] = biological target: T1, GLS1 (purified recombinant human GAC) (Homo sapiens, UniProt O94925); assay: GLS1 enzymatic activity assay (dual-coupled, Amplex UltraRed/resorufin); assay type: biochemical
# T1 sequence (O94925 55-598 isoform O94925-3 limits assumed): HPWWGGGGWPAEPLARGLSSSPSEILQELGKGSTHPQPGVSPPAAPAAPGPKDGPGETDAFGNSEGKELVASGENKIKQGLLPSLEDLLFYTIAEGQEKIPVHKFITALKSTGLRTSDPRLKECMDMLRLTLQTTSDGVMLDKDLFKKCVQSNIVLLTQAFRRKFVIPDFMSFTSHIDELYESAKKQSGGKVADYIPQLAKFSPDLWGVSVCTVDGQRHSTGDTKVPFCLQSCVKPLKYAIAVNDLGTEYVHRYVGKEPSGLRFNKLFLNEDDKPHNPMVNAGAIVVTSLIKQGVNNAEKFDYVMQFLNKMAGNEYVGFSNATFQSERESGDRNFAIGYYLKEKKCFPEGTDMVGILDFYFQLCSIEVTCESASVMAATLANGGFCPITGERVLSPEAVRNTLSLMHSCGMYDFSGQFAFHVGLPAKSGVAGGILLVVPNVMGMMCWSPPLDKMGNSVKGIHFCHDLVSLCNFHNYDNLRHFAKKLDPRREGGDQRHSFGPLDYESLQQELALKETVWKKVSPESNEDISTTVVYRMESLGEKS
# Summary of the method: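 Recombinant human GAC (2 nM) preincubated with 50 mM potassium phosphate, then inhibitor (10 min each, RT); 1 mM glutamine, pH 7.4 Hepes buffer, 1% DMSO. Glutamate coupled via glutamate oxidase/HRP to resorufin (Ex 530/Em 590), kinetic or 20-min endpoint; IC50 by four-parameter logistic fit.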
EC50 (A549 cells) [nM],IC50 [1] [nM],SMILES
< 100,< 100,"O=C(Nc1ccn(CCC(F)Cn2cc(C(=O)NCc3cccc(OC(F)(F)F)c3)nn2)c(=O)n1)OCc1ccccc1F (stereo not drawn) [Example 489, (2-fluorophenyl)methyl N-(1-{3-fluoro-4-[4-({[3-(trifluoro-methoxy)phenyl]methyl}carbamoyl)-1H-1,2,3-triazol-1-yl]butyl}-2-oxo-1,2-dihydropyrimidin-4-yl)carbamate]"
< 100,< 100,"O=C(CN1CCCCC1)Nc1ccn(CCC(F)Cn2cc(C(=O)NCc3cccc(OC(F)(F)F)c3)nn2)c(=O)c1 (stereo not drawn) [Example 269, 1-(2-fluoro-4-{2-oxo-4-[2-(piperidin-1-yl)acetamido]-1,2-dihydropyridin-1-yl}butyl)-N-{[3-(trifluoromethoxy)phenyl]methyl}-1H-1,2,3-triazole-4-carboxamide]"
< 100,< 100,"O=C(CN1CCCC(F)(F)C1)Nc1ccn(CCC(F)Cn2cc(C(=O)NCc3cccc(OC(F)(F)F)c3)nn2)c(=O)c1F (stereo not drawn) [Example 295, 1-(4-{4-[2-(3,3-difluoropiperidin-1-yl)acetamido]-3-fluoro-2-oxo-1,2-dihydropyridin-1-yl}-2-fluorobutyl)-N-{[3-(trifluoromethoxy)phenyl]methyl}-1H-1,2,3-triazole-4-carboxamide]"
< 100,< 100,"CC(=O)OC(C(=O)Nc1ccn(CC[C@H](F)Cn2cc(C(=O)NCc3cccc(OC(F)(F)F)c3)nn2)c(=O)c1F)c1ccccc1 (stereo partly drawn) [Example 305, (S)-[(3-fluoro-1-{3-fluoro-4-[4-({[3-(trifluoromethoxy)phenyl]methyl}carbamoyl)-1H-1,2,3-triazol-1-yl]butyl}-2-oxo-1,2-dihydropyridin-4-yl)carbamoyl](phenyl)methyl acetate]"
100 to 500,< 100,"CCN(CC)C(=O)C(=O)Nc1ccn(CCC(F)Cn2cc(C(=O)NCc3cccc(OC(F)(F)F)c3)nn2)c(=O)c1F (stereo not drawn) [Example 425, N,N-diethyl-N′-(3-fluoro-1-{3-fluoro-4-[4-({[3-(trifluoro-methoxy)phenyl]methyl}carbamoyl)-1H-1,2,3-triazol-1-yl]butyl}-2-oxo-1,2-dihydropyridin-4-yl)ethanediamide]"
< 100,< 100,"O=C(Nc1ccn(CCC(F)Cn2cc(C(=O)NCc3cc(OC(F)(F)F)ccc3F)nn2)c(=O)c1F)C(=O)N1CCC[C@@H](C(F)(F)F)C1 (stereo partly drawn) [Example 434, 1-[2-fluoro-4-(3-fluoro-2-oxo-4-{2-oxo-2-[(3R)-3-(trifluoromethyl)piperidin-1-yl]acetamido)-1,2-dihydropyridin-1-yl)butyl]-N-{[2-fluoro-5-(trifluoromethoxy)phenyl]methyl}-1H-1,2,3-triazole-4-carboxamide]"
500 to 5000,< 100,"O=C(Cc1ccccn1)Nc1ccn(CCCCc2nnc(C(=O)NCc3cc(OC(F)(F)F)ccc3F)s2)c(=O)c1 [Example 461, N-{[2-fluoro-5-(trifluoromethoxy)phenyl]methyl}-5-(4-{2-oxo-4-[2-(pyridin-2-yl)acetamido]-1,2-dihydropyridin-1-yl}butyl)-1,3,4-thiadiazole-2-carboxamide]"
> 5000,500 to 5000,"O=C(Nc1ccn(CCC(F)Cn2cc(C(=O)NCc3cc(C(F)(F)F)ccn3)nn2)c(=O)n1)NC1CCC1 (stereo not drawn) [Example 496, 1-(4-{4-[(cyclobutylcarbamoyl)amino]-2-oxo-1,2-dihydropyrimidin-1-yl}-2-fluorobutyl)-N-{[4-(trifluoromethyl)pyridin-2-yl]methyl}-1H-1,2,3-triazole-4-carboxamide]"
< 100,< 100,"O=C(CC1CCCC1)Nc1ccn(CCC(F)Cn2cc(C(=O)NCc3ccc(C(F)(F)F)cn3)nn2)c(=O)c1F (stereo not drawn) [Example 394, 1-{4-[4-(2-cyclopentylacetamido)-3-fluoro-2-oxo-1,2-dihydropyridin-1-yl]-2-fluorobutyl}-N-{[5-(trifluoromethyl)pyridin-2-yl]methyl}-1H-1,2,3-triazole-4-carboxamide]"
< 100,< 100,"CC(C)(C)OC(=O)N1CC2(CN(CC(=O)Nc3ccn(CCC(F)Cn4cc(C(=O)NCc5cccc(OC(F)(F)F)c5)nn4)c(=O)c3F)C2)C1 (stereo not drawn) [Example 297, tert-butyl 6-{[(3-fluoro-1-{3-fluoro-4-[4-({[3-(trifluoro-methoxy)phenyl]methyl}carbamoyl)-1H-1,2,3-triazol-1-yl]butyl}-2-oxo-1,2-dihydropyridin-4-yl)carbamoyl]methyl}-2,6-diazaspiro[3.3]heptane-2-carboxylate]"
< 100,< 100,"CC(C)(C)OC(=O)N1CCC(CC(=O)Nc2ccn(CCC(F)Cn3cc(C(=O)NCc4cccc(OC(F)(F)F)c4)nn3)c(=O)c2F)CC1 (stereo not drawn) [Example 289, tert-butyl 4-{[(3-fluoro-1-{3-fluoro-4-[4-({[3-(trifluoro-methoxy)phenyl]methyl}carbamoyl)-1H-1,2,3-triazol-1-yl]butyl}-2-oxo-1,2-dihydropyridin-4-yl)carbamoyl]methyl}piperidine-1-carboxylate]"
< 100,< 100,"O=C(Nc1ccn(CCC(F)Cn2cc(C(=O)NCc3cccc(OC(F)(F)F)c3)nn2)c(=O)n1)OC1CCC(F)(F)CC1 (stereo not drawn) [Example 498, 4,4-difluorocyclohexyl N-(1-{3-fluoro-4-[4-({[3-(trifluoro-methoxy)phenyl]methyl}carbamoyl)-1H-1,2,3-triazol-1-yl]butyl}-2-oxo-1,2-dihydropyrimidin-4-yl)carbamate]"

# The remaining lines, values behind:
SMILES,EC50 (A549 cells) [nM],IC50 [1] [nM]
"Cc1ccc(CNC(=O)c2cn(CC(F)CCn3ccc(NC(=O)CC4CCCCO4)cc3=O)nn2)cn1 (stereo not drawn) [Example 195, 1-(2-fluoro-4-{4-[2-(oxan-2-yl)acetamido]-2-oxo-1,2-dihydropyridin-1-yl}butyl)-N-[(6-methylpyridin-3-yl)methyl]-1H-1,2,3-triazole-4-carboxamide]",500 to 5000,100 to 500
"O=C(Cc1ccc(Cl)nc1)Nc1ccn(CCC(F)Cn2cc(C(=O)NCc3cccc(OC(F)(F)F)c3)nn2)c(=O)c1 (stereo not drawn) [Example 238, 1-(4-{4-[2-(6-chloropyridin-3-yl)acetamido]-2-oxo-1,2-dihydropyridin-1-yl}-2-fluorobutyl)-N-{[3-(trifluoromethoxy)phenyl]methyl}-1H-1,2,3-triazole-4-carboxamide]",100 to 500,< 100
"O=C(Cc1ccccc1)Nc1ccn(CCCCc2nnc(NC(=O)Cc3ccccc3)s2)c(=O)c1 [Example 31, N-(2-oxo-1-{4-[5-(2-phenylacetamido)-1,3,4-thiadiazol-2-yl]butyl}-1,2-dihydropyridin-4-yl)-2-phenylacetamide]",500 to 5000,< 100
"O=C(Cc1ccccc1)Nc1ccn(CCC(F)Cn2cc(C(=O)NCc3cc(OC(F)(F)F)ccc3F)nn2)c(=O)c1 (stereo not drawn) [Example 12, 1-(2-fluoro-4-(2-oxo-4-(2-phenylacetamido)pyridin-1(2H)-yl)butyl)-N-(2-fluoro-5-(trifluoromethoxy)benzyl)-1H-1,2,3-triazole-4-carboxamide]",< 100,< 100
"O=C(Cc1cccc(OC(F)(F)F)c1)Nc1ccc(CCCCn2ccc(NC(=O)Cc3cccnc3)nc2=O)nn1 [Example 116, N-[6-(4-{2-oxo-4-[2-(pyridin-3-yl)acetamido]-1,2-dihydropyrimidin-1-yl}butyl)pyridazin-3-yl]-2-[3-(trifluoromethoxy)phenyl]acetamide]",< 100,< 100
"N#CCC(=O)Nc1ccn(CCC(F)Cn2cc(C(=O)NCc3cccc(OC(F)(F)F)c3)nn2)c(=O)c1 (stereo not drawn) [Example 188, 1-{4-[4-(2-cyanoacetamido)-2-oxo-1,2-dihydropyridin-1-yl]-2-fluorobutyl}-N-{[3-(trifluoromethoxy)phenyl]methyl}-1H-1,2,3-triazole-4-carboxamide]",> 5000,500 to 5000
"CC(C)(C)OC(=O)Nc1ccn(CCC(F)Cn2cc(C(=O)NCc3cccc(OC(F)(F)F)c3)nn2)c(=O)c1F (stereo not drawn) [Example 226, tert-butyl N-(3-fluoro-1-{3-fluoro-4-[4-({[3-(trifluoro-methoxy)phenyl]methyl}carbamoyl)-1H-1,2,3-triazol-1-yl]butyl}-2-oxo-1,2-dihydropyridin-4-yl)carbamate]",< 100,< 100
"O=C(Nc1ccn(CCCCn2cc(C(=O)NCc3cccc(OC(F)(F)F)c3)nn2)c(=O)c1)OC1CCC(F)(F)CC1 [Example 174, 4,4-difluorocyclohexyl N-(2-oxo-1-{4-[4-({[3-(trifluoro-methoxy)phenyl]methyl}carbamoyl)-1H-1,2,3-triazol-1-yl]butyl}-1,2-dihydropyridin-4-yl)carbamate]",100 to 500,< 100
"Cc1cccc(CNC(=O)c2cn(CC(F)CCn3ccc(NC(=O)Cc4ccccc4)cc3=O)nn2)n1 (stereo not drawn) [Example 165, 1-{2-fluoro-4-[2-oxo-4-(2-phenylacetamido)-1,2-dihydropyridin-1-yl]butyl}-N-[(6-methylpyridin-2-yl)methyl]-1H-1,2,3-triazole-4-carboxamide]",500 to 5000,< 100
